Read-outs that look alike come from different tables or passages of the source.
Tests used:
[1] = Cell count assay (trypan blue); format: cell-based; parameters: concentration or dose not given beside the values; conditions: human; for viability at 24 h: read-out: Number of viable cells after 24 h of ligand treatment; for viability at 48 h: read-out: Number of viable cells after 48 h of ligand treatment
Experimental: (§1) Normal and tumor cell lines were seeded at 20000–40000 cells/cm^2 with 0.2 mL/cm^2 media and incubated for 48 h at 37°C, 6% CO2, 95% relative humidity. […] After 24 h and 48 h of incubation, cells were washed with 300 µl PBS or 0.02% EDTA, trypsinized, followed by harvesting at 37°C. 200 µl cell suspension was transferred into 1.5 ml microcentrifuge tube. To the cell suspension, 300 µl PBS followed by 500 µl of 0.4% trypan blue solution was added. To get the homogenised solution, the microcentrifuge tube was gently tapped for 5 min, 20 µl of cell suspension was loaded in to a chamber of the haemocytometer.

A549 = test: Cell count assay (trypan blue); format: cell-based, human; conditions: for Number of viable cells after 24 h of ligand treatment: A549, 24 h; for Number of viable cells after 48 h of ligand treatment: A549, 48 h;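 on Number of viable cells after 24 h of ligand treatment: each ligand tested at its own IC50 concentration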
Experimental: as §1

B16F10 = test: Cell count assay (trypan blue); format: cell-based, human; conditions: for Number of viable cells after 24 h of ligand treatment: B16F10, 24 h; for Number of viable cells after 48 h of ligand treatment: B16F10, 48 h
Experimental: as §1

MCF-7 = test: Cell count assay (trypan blue); format: cell-based, human; conditions: for Number of viable cells after 24 h of ligand treatment: MCF-7, 24 h; for Number of viable cells after 48 h of ligand treatment: MCF-7, 48 h;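 on Number of viable cells after 48 h of ligand treatment: each ligand tested at its own IC50 concentration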
Experimental: as §1

B16F10 cells = test: Flow cytometry Annexin V / PI dot plot; format: cell-based, human; conditions: 200 µM L1, 125 µM L2, 50 µM L3, 3 h
Experimental: Since MTT and cell culture assays yielded encouraging results with B16F10 cells they were used for confocal and flow cytometry experiments. After 90% confluence, the cells were treated with 200 µM, 125 µM and 50 µM of L1, L2, L3 respectively, for 3 h. 1×10^6 cells were washed with 2× binding buffer and resuspended in 100 µl binding buffer and Annexin-V-FITC (1.0 µg). The cells were then incubated at room temperature for 10 min, followed by the addition of 400 µl of binding buffer containing 1 µl of Propidium Iodide (PI). Stained cells were analyzed using FACS Calibur Flow Cytometer from B.D. Biosceinces (USA). Annexin-V-FITC and PI labelled cells were excited using 488 nm solid-state laser and fluorescence emission intensity was captured using 530/30 and 585/42 band pass filters respectively.

QF DNA = test: Stop assay (inhibition of in vitro DNA synthesis) with QF DNA; format: biochemical; conditions: for ligand concentration range of complete / maximum inhibition of DNA synthesis: 5 µM QF DNA; for percentage of DNA synthesis inhibition with QF DNA: at the respective half maximal inhibitory concentration; for Ki: competitive inhibition against dNTPs, Taq polymerase, read-out: inhibition constant (Ki), Cheng-Prusoff equation
Experimental: (§2) The G-quadruplex structure forming region of QF oligonucleotide is shown in bold letters.
(§3) To the PCR reaction mixture (25 µl) containing 10 mM Tris-HCl, pH 8.3, with 50 mM KCl, 1.5 mM Mg(OAc)2, 5 µM of each oligonucleotide, 1 mM dNTPs, 5 units of Taq polymerase, L1, L2, L3 were added at various concentrations (50 µM, 100 µM, 150 µM, 200 µM), and PCR reactions were performed. PCR mixture without any ligand was considered as control. The primers were 5′ end-labelled with [γ-^32P] ATP using 1 µl of polynucleotide kinase and 5 µl of 10× kinase buffer and the contents were incubated at 37°C for 5 min. Stop assay was performed using an ABI thermal cycler. Initial denaturation was done at 94°C for 3 min, followed by 20 repeated cycles each having 94°C for 30 sec, 58°C for 30 sec, and 72°C for 30 sec. After PCR, 5 µl of the amplified product was loaded on a 12% non-denaturing polyacrylamide gel with 1×TBE. The in vitro DNA synthetic band intensity was measured using Bio Rad Gel Doc XR+system (USA). The band intensity of the PCR product obtained with no ligand was taken as control for all the quadruplex forming DNA samples (QF DNA). Percentage of DNA synthesis inhibition was calculated using equation 1, whereas, inhibition constant, Ki (using Cheng-Prusoff equation) for each ligand was calculated by using equation 2. [drawing 2] (1)

HQF DNA d(TTAGGG)4 = test: Isothermal titration calorimetry; format: binding, human; conditions: ITC; for K1 x 10^-7 / K2 x 10^-5: two-sites model, 100 mM KBPES pH 7.0; for K1 x 10^-7: mode-1, 25°C; for K2 x 10^-5: mode-2, 25°C; for Kd: quadruplex DNA, read-out: Kd, higher affinity interaction (mode-1)
Experimental: (§4) When quadruplex DNA melts to form ssDNA structure, SG fluorescence intensity gradually reduces as SG has no binding to ssDNA. Each time, 5 µM of HQF DNA [d(T2AG3)4)], 5 µM of dsDNA (prepared by mixing equal concentration of poly-dA-dT and poly-dT-dA), 5 µM ssDNA ( poly dT alone) and 1 µM of each ligand was incubated at 4°C for 16 h, and used for melting studies. […] Affinity, stoichiometry and thermodynamic parameters for quadruplex-ligand complex were studied with 60 µM of ligand and 10 µM of HQF DNA using Microcal VP-ITC (Northampton, MA, USA). Ligand addition to G-quadruplex DNA was made every 180 seconds. Titration experiments were performed thrice and blank correction was made each time to minimize error.
On integrating the heats produced per injection, with respect to time and conversion to per mole basis, the binding isotherm (Figure 8A) corresponding to each ligand was obtained. […] After making blank correction, the heat data was fitted with “two-independent sites” model and analyzed using Origin 7.1 to calculate thermodynamic parameters.

telomerase = tested on: telomerase; parameters: method as in PMID 10741725; conditions: cited from earlier work
NQF DNA = test: Stop assay (inhibition of in vitro DNA synthesis) with NQF DNA; format: biochemical; conditions: 5 µM NQF DNA
Experimental: as §2, §3

[2] = tested on: dsDNA (poly-dA-dT and poly-dT-dA); test: SYBR Green melting study with dsDNA; format: binding; conditions: 5 µM dsDNA, 1 µM ligand; dsDNA alone 24°C
Experimental: as §4

[3] = CRL-2115 cells (normal cell line), CRL-2115, 24 h
[4] = CRL-2115 cells (normal cell line), CRL-2115, 48 h
[5] = CRL-2120 cells (normal cell line), CRL-2120, 24 h
[6] = CRL-2120 cells (normal cell line), CRL-2120, 48 h
[7] = NCM-460 cells (normal cell line), NCM-460, 24 h
[8] = NCM-460 cells (normal cell line), NCM-460, 48 h

Compound `Cc1cn([C@H]2C[C@H](N=[N+]=[N-])[C@@H](CO)O2)c(=O)[nH]c1=O` [Ligand L1, 1-(4-azido 5-(hydroxylmethyl)tetrahydrofuran-2-yl)-5-methyl pyrimidi-ne-2,4(1H,3H)-dione, reference compound] has a viability at 24 h [1, 3] of 80 to 90%, a viability at 48 h [1, 4] of 50 to 60% and a viability at 24 h [1, 5] of 80 to 90%. The viability at 48 h [1, 6] was 50 to 60%, the viability at 24 h [1, 7] was 80 to 90% and the viability at 48 h [1, 8] was 50 to 60%. The “Number of viable cells after 24 h of ligand treatment” value (A549) was “+ (Viable cells in the range of 80%–90%)”, the “Number of viable cells after 48 h of ligand treatment” value (A549) was “++ (Viable cells in the range of 50%–60%)” and the “Number of viable cells after 24 h of ligand treatment” value (B16F10) was “++ (Viable cells in the range of 50%–60%)”. For the same compound, the “Number of viable cells after 48 h of ligand treatment” value (B16F10) was “+++ (Viable cells which are equal or less than 30%)”, the “Number of viable cells after 24 h of ligand treatment” value (MCF-7) was “+ (Viable cells in the range of 80%–90%)” and the “Number of viable cells after 48 h of ligand treatment” value (MCF-7) was “++ (Viable cells in the range of 50%–60%)”. The “Cells Alive” value (B16F10 cells) was 68.78%, the Early apoptotic (B16F10 cells) was 02.61% and the Late apoptotic (B16F10 cells) was 12.05%. The Necrotic (B16F10 cells) was 16.56%, the Total apoptotic cells (B16F10 cells) was 14.66% and the “ligand concentration range of complete / maximum inhibition of DNA synthesis” value (QF DNA) was 150 to 200 µM. The “percentage of DNA synthesis inhibition with QF DNA” value (QF DNA) was 84%, the Ki (QF DNA) was 2940 nM and the “K1 x 10^-7” value (HQF DNA d(TTAGGG)4) was 0.72 (± 0.3). For the same compound, the “K2 x 10^-5” value (HQF DNA d(TTAGGG)4) was 2.14 (± 0.2) and the “concentration reported to inhibit telomerase” value (telomerase) was “around 200 µM”.
Work on `Cc1cn([C@H]2C[C@H](n3cc(-c4ccccc4)nn3)[C@@H](CO)O2)c(=O)[nH]c1=O` [Ligand L2] yielded a viability at 24 h [1, 3] of 80 to 90%, a viability at 48 h [1, 4] of 50 to 60% and a viability at 24 h [1, 5] of 80 to 90%. It also gave a viability at 48 h [1, 6] of 50 to 60%, a viability at 24 h [1, 7] of 80 to 90% and a viability at 48 h [1, 8] of 50 to 60%. The “Number of viable cells after 24 h of ligand treatment” value (A549) was “++/++ (Viable cells in the range of 50%–60%)”, the “Number of viable cells after 48 h of ligand treatment” value (A549) was “++/++ (Viable cells in the range of 50%–60%)” and the “Number of viable cells after 24 h of ligand treatment” value (B16F10) was “++ (Viable cells in the range of 50%–60%)”. For the same compound, the “Number of viable cells after 48 h of ligand treatment” value (B16F10) was “+++ (Viable cells which are equal or less than 30%)”, the “Number of viable cells after 24 h of ligand treatment” value (MCF-7) was “+ (Viable cells in the range of 80%–90%)” and the “Number of viable cells after 48 h of ligand treatment” value (MCF-7) was “++ (Viable cells in the range of 50%–60%)”. For the same compound, the “Cells Alive” value (B16F10 cells) was 22.88%, the Early apoptotic (B16F10 cells) was 04.82% and the Late apoptotic (B16F10 cells) was 19.07%. For the same compound, the Necrotic (B16F10 cells) was 53.23%, the Total apoptotic cells (B16F10 cells) was 23.89% and the “ligand concentration range of complete / maximum inhibition of DNA synthesis” value (QF DNA) was 150 to 200 µM. For the same compound, the “percentage of DNA synthesis inhibition with QF DNA” value (QF DNA) was 91%, the Ki (QF DNA) was 1840 nM and the Kd (HQF DNA d(TTAGGG)4) was about 100 nM. For the same compound, the “K1 x 10^-7” value (HQF DNA d(TTAGGG)4) was 1.35 (± 0.1) and the “K2 x 10^-5” value (HQF DNA d(TTAGGG)4) was 2.61 (± 0.3).
`Cc1cn([C@H]2C[C@H](n3cc(-c4ccc(Cl)cc4)nn3)[C@@H](CO)O2)c(=O)[nH]c1=O` [Ligand L3, 1-(4-(4-(4-chlorophenly)-1H-1,2,3-triazole-1-yl)-5-(hydroxymethyl)tetrahydrofuran-2-yl)-5-methylpyrimidine-2,3(1H,3H)-dione] showed a viability at 24 h [1, 3] of 80 to 90%, a viability at 48 h [1, 4] of 50 to 60% and a viability at 24 h [1, 5] of 80 to 90%. It also gave a viability at 48 h [1, 6] of 50 to 60%, a viability at 24 h [1, 7] of 80 to 90% and a viability at 48 h [1, 8] of 50 to 60%. The “Number of viable cells after 24 h of ligand treatment” value (A549) was “++ (Viable cells in the range of 50%–60%)”, the “Number of viable cells after 48 h of ligand treatment” value (A549) was “+++ (Viable cells which are equal or less than 30%)” and the “Number of viable cells after 24 h of ligand treatment” value (B16F10) was “++ (Viable cells in the range of 50%–60%)”. For the same compound, the “Number of viable cells after 48 h of ligand treatment” value (B16F10) was “+++ (Viable cells which are equal or less than 30%)”, the “Number of viable cells after 24 h of ligand treatment” value (MCF-7) was “++/++ (Viable cells in the range of 50%–60%)” and the “Number of viable cells after 48 h of ligand treatment” value (MCF-7) was “++/++ (Viable cells in the range of 50%–60%)”. The “Cells Alive” value (B16F10 cells) was 17.79%, the Early apoptotic (B16F10 cells) was 20.99% and the Late apoptotic (B16F10 cells) was 60.26%. The Necrotic (B16F10 cells) was 00.96%, the Total apoptotic cells (B16F10 cells) was 81.25% and the “ligand concentration range of complete / maximum inhibition of DNA synthesis” value (QF DNA) was 50 to 100 µM. For the same compound, the “percentage of DNA synthesis inhibition with QF DNA” value (QF DNA) was 94%, the Ki (QF DNA) was 735 nM and the “inhibition of in vitro DNA synthesis with NQF DNA” value (NQF DNA) was “around 33%”. For the same compound, the Kd (HQF DNA d(TTAGGG)4) was about 100 nM, the “K2 x 10^-5” value (HQF DNA d(TTAGGG)4) was 2.82 (±0.5) and the “Tm of dsDNA with ligand” value [2] was 25 °C.
